Results taken from PMC11949107, “Polyunsaturated fatty acids and their endocannabinoid-related metabolites activity at human TRPV1 and TRPA1 ion channels expressed in HEK-293 cells” (PeerJ, 2025).
Several values for one entry are separate records, joined by “and”; a condition that tells them apart may be missing. Equal entries are not always repeated.

Tests used:
human TRPV1 = target: T1, human TRPV1 (Homo sapiens, UniProt Q8NER1); assay: Calcium 5 dye [Ca]i assay in HEK-293 Flp-In T-REx cells expressing TRPV1 (agonist response); type: cell-based; details: for Elevation of [Ca]i in HEK-293 TRPV1 cells compared with HEK-293 EV cells / Change of Ca5 fluorescence, Mean ± SEM, TRPV1 (10 µM): 10 µM; for Change of Ca5 fluorescence, Mean ± SEM, TRPV1 (10 µM): percentage of predrug baseline; for Maximal TRPV1 response compared with the highest concentration of capsaicin: 30 µM vs capsaicin 10 µM; for Emax ± SEM % TRPV1 (30 µM): highest tested concentration (30 µM) or derived from concentration-response curves (DHEA, AEA, NADA, capsaicin); for Change in Ca5 fluorescence, individual experiments (CRC raw data): TRPV1 cells; for TRPV1 response, Mean± SEM (N): 30 µM, one-way ANOVA comparison with capsaicin 10 µM
T1 construct: Life Technologies (cells); host or cells: Flp-In T-REx HEK-293
Protocol: (§1) The cells were incubated in a 5% CO2 humidified atmosphere at 37 °C. Upon reaching approximately 90% confluence in 75 cm^2 flasks, they were trypsinized and transferred to poly-D-lysine coated 96-well plates (Corning, Castle Hill, NSW, Australia) in L-15 medium supplemented with 1% FBS, 100 U penicillin and 100 µg streptomycin ml^−1 (1% P/S), and 15 mM glucose (80 µL volume per well). After an overnight incubation (maximum of 16 h) in humidified room air at 37 °C, TRPV1 and TRPA1 receptor expression was induced 4 h before experimentation by adding to each well 10 µL tetracycline solution to a final concentration of 1 µg ml^−1.
(§2) Intracellular calcium [Ca]i levels were assessed using the calcium 5 kit from Molecular Devices (# R8186, Sunnyvale, CA, USA) on a FlexStation 3 Microplate Reader (Molecular Devices, Sunnyvale, CA, USA). […] Probenecid (cat # 50027; Biotium) which helps to prevent expulsion of calcium indicator from the cells was added to a final concentration of 1.25 mM. 90 µL of the dye were loaded into each well of the plate and incubated for 1 h before reading in the FlexStation 3 at 37 °C. Fluorescence was recorded every 2 s (λ excitation = 485 nm, λ emission = 525 nm) for 5 min. After 1 min of baseline recording, 20 µL of the drug, dissolved in HBSS with 1% dimethyl sulfoxide (DMSO) (cat # D2650; Sigma-Aldrich, Melbourne, Australia) was added (final DMSO concentration was 0.1% in well).
(§3) The response to agonists was expressed as a percentage change from the average baseline measurement taken for 60s before adding drug. Changes in fluorescence resulting from the addition of solvent were subtracted before normalization to baseline. Concentration–response curves (CRC), Emax and EC50 values were determined using a three-parameter logistic equation (GraphPad Prism, San Diego, CA, USA). […] Potencies were expressed as pEC50, which is the negative log of EC50 in moles per litre (Molar). Where appropriate, unpaired Student’s t-test were used to compare the responses of individual compounds in different conditions, while a one-way ANOVA followed by Dunnett’s multiple comparisons test was used to assess potential differences in responses elicited by a range of compounds. P < 0.05 was considered statistically significant.

HEK-293 EV cells = assay: Calcium 5 dye [Ca]i assay in HEK-293 empty vector (EV) cells; type: cell-based, human; details: 10 µM; HEK-293 EV cells; percentage of predrug baseline
Protocol: as §1
Intracellular calcium [Ca]i levels were assessed using the calcium 5 kit from Molecular Devices (# R8186, Sunnyvale, CA, USA) on a FlexStation 3 Microplate Reader (Molecular Devices, Sunnyvale, CA, USA). […] 90 µL of the dye were loaded into each well of the plate and incubated for 1 h before reading in the FlexStation 3 at 37 °C. […] After 1 min of baseline recording, 20 µL of the drug, dissolved in HBSS with 1% dimethyl sulfoxide (DMSO) (cat # D2650; Sigma-Aldrich, Melbourne, Australia) was added (final DMSO concentration was 0.1% in well).
as §3

human TRPA1 = target: T2, human TRPA1 (Homo sapiens, UniProt O75762); assay: Calcium 5 dye [Ca]i assay in HEK-293 Flp-In T-REx cells expressing TRPA1 (agonist response); type: cell-based; details: for Elevation of [Ca]i in HEK-293 TRPA1 cells compared with HEK-293 EV cells: 10 µM (cinnamaldehyde 300 µM); for Change of Ca5 fluorescence, Mean ± SEM, TRPA1 (10 µM): HEK-293 TRPA1 cells, percentage of predrug baseline; for TRPA1 activation at the highest concentration tested / TRPA1 response compared with the highest concentration of cinnamaldehyde (300 µM) / TRPA1 response, Mean± SEM (N): 30 µM; for TRPA1 response, Mean± SEM (N): one-way ANOVA comparison with cinnamaldehyde 300 µM; for Emax ± SEM % TRPA1 (30 µM): highest tested concentration (30 µM) or derived from concentration-response curves (cinnamaldehyde); for Change in Ca5 fluorescence, individual experiments (CRC raw data): TRPA1 cells
T2 construct: Life Technologies (cells); host or cells: Flp-In T-REx HEK-293
Protocol: as §1, §2, §3

T2 sequence (O75762 whole entry): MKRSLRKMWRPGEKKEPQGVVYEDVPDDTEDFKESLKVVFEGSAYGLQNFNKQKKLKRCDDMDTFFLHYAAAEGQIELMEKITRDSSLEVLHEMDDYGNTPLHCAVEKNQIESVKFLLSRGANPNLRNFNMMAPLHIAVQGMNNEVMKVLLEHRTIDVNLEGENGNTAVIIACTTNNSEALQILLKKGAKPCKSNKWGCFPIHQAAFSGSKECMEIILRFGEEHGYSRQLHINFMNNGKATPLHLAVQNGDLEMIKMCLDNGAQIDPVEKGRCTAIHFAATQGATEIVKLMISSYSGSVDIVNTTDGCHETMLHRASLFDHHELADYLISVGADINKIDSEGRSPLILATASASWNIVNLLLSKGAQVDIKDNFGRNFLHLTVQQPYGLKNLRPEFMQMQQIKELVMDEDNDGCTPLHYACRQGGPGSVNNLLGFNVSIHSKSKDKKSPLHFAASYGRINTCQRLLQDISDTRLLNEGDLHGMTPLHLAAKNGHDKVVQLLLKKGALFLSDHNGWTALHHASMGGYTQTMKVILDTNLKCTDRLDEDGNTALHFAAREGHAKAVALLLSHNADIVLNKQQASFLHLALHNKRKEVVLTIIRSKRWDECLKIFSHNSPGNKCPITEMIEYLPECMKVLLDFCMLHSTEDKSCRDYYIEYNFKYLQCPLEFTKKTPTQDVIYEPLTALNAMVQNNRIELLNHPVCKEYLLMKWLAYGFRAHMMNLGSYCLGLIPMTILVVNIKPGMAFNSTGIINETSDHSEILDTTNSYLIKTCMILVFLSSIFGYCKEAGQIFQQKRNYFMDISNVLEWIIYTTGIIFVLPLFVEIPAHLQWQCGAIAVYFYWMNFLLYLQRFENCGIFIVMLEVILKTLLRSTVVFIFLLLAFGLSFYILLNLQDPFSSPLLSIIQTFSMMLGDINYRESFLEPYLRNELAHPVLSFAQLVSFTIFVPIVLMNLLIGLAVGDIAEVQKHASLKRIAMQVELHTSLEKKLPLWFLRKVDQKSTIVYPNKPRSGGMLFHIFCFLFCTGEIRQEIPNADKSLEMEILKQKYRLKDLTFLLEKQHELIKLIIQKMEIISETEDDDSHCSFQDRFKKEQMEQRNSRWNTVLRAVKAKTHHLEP
T1 sequence (Q8NER1 whole entry): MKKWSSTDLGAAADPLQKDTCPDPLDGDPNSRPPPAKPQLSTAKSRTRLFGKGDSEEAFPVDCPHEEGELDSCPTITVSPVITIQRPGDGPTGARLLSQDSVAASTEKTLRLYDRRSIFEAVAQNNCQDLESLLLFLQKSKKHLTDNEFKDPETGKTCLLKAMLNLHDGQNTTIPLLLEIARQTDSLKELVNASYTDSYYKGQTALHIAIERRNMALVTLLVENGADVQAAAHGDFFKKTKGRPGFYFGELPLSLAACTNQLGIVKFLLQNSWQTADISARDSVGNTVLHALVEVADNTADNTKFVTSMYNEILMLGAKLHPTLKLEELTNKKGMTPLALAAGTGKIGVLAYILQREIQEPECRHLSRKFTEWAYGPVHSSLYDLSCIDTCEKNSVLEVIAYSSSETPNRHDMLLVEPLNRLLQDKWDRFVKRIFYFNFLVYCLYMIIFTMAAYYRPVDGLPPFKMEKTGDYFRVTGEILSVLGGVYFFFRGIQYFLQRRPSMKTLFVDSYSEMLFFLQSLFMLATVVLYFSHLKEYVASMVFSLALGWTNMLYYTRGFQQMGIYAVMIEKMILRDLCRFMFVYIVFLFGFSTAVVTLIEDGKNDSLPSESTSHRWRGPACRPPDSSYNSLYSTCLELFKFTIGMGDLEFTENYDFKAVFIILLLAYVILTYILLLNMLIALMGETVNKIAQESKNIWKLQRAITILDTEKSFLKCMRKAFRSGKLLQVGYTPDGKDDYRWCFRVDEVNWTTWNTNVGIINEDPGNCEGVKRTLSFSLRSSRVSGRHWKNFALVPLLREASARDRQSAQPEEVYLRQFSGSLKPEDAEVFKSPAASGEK

Structure (SMILES)	Elevation of [Ca]i in HEK-293 TRPV1 cells compared with HEK-293 EV cells (human TRPV1)	Change of Ca5 fluorescence, Mean ± SEM, TRPV1 (10 µM) (human TRPV1; HEK-293 TRPV1 cells) [%]	Emax ± SEM % TRPV1 (30 µM) (human TRPV1) [%]	Change in Ca5 fluorescence, individual experiments (CRC raw data) (human TRPV1; log concentration -4.52288 (M))	Change in Ca5 fluorescence, individual experiments (CRC raw data) (human TRPV1; log concentration -5 (M))	Change in Ca5 fluorescence, individual experiments (CRC raw data) (human TRPV1; log concentration -5.52288 (M))	Change in Ca5 fluorescence, individual experiments (CRC raw data) (human TRPV1; log concentration -6 (M))	Change in Ca5 fluorescence, individual experiments (CRC raw data) (human TRPV1; log concentration -6.52288 (M))	Change in Ca5 fluorescence, individual experiments (CRC raw data) (human TRPV1; log concentration -7 (M))	Change of Ca5 fluorescence, Mean ± SEM, EV (10 µM) (HEK-293 EV cells) [%]	Elevation of [Ca]i in HEK-293 TRPA1 cells compared with HEK-293 EV cells (human TRPA1)	Change of Ca5 fluorescence, Mean ± SEM, TRPA1 (10 µM) (human TRPA1) [%]	TRPA1 activation at the highest concentration tested (human TRPA1)	TRPA1 response compared with the highest concentration of cinnamaldehyde (300 µM) (human TRPA1)	TRPA1 response, Mean± SEM (N) (human TRPA1)	Emax ± SEM % TRPA1 (30 µM) (human TRPA1) [%]	Change in Ca5 fluorescence, individual experiments (CRC raw data) (human TRPA1; log concentration -4.52288 (M))	Change in Ca5 fluorescence, individual experiments (CRC raw data) (human TRPA1; log concentration -5 (M))	Change in Ca5 fluorescence, individual experiments (CRC raw data) (human TRPA1; log concentration -5.52288 (M))	Change in Ca5 fluorescence, individual experiments (CRC raw data) (human TRPA1; log concentration -6 (M))	further results
CC/C=C\C/C=C\C/C=C\C/C=C\C/C=C\C/C=C\CCC(=O)NCCO [DHEA, docosahexaenoyl ethanolamide]	significantly greater	266 ± 51	439 ± 81	421.157 and 266.746 and 225.074 and 238.504 and 226.816 and 459.662	358.299 and 237.035 and 372.804 and 59.1046 and 202.763 and 364.608	143.051 and 24.824 and 40.8645 and 14.285 and 22.6333 and 69.1812	82.6736 and 2.152 and 3.016 and 2.309 and 4.337 and 4.334	7.224 and 2.186 and 3.68 and 2.567 and 2.837 and 6.478	5.718 and 2.642 and 2.583 and 2.209 and 5.355 and 1.543	10 ± 3	significantly greater	107 ± 50	activated TRPA1	did not differ	335± 60	335 ± 35	349.992 and 313.567 and 315.432 and 199.601 and 366.143 and 464.813	252.775 and 33.0558 and 3.468 and 15.2698 and 63.0111 and 272.344	2.533 and 3.173 and 1.452 and 10.0203 and 10.0547 and 73.8394	2.6845 and 3.9598 and 1.663 and 5.882 and 4.143 and 4.307	Maximal TRPV1 response compared with the highest concentration of capsaicin (human TRPV1): did not differ; pEC50 ± SEM TRPV1 (human TRPV1; HEK-293 TRPV1 cells, EC50 in molar): 5 ± 0.2; Change in Ca5 fluorescence, individual experiments (CRC raw data) (human TRPA1; log concentration -6.52288 (M)): 2.976 and 11.5941 and 1.922 and 8.318 and 8.221 and 6.083; Change in Ca5 fluorescence, individual experiments (CRC raw data) (human TRPA1; log concentration -7 (M)): 8.586 and 11.8101 and 8.8764 and 6.208 and 4.123 and 2.766
CC/C=C\C/C=C\C/C=C\C/C=C\C/C=C\CCCC(=O)NCCO [EPEA, eicosapentaenoyl ethanolamide]	did not produce a notable change	15 ± 8	51 ± 22	12.8698 and 124.435 and 117.092 and 13.2242 and 28.647 and 8.814	6.443 and 53.2228 and 9.9712 and 11.9185 and 2.5776 and 3.793	5.664 and 10.8694 and 3.209 and 12.2234 and 1.072 and 3.982	2.913 and 5.488 and 1.312 and 9.151 and 2.704 and 1.489	3.773 and 2.311 and 2.08 and 9.31 and 0.4729 and 1.052	7.0578 and 1.12 and 6.0854 and 9.074 and 2.61 and 2.864	3 ± 1	did not produce a change	50 ± 40	activated TRPA1	significantly smaller	274± 60	274 ± 27	345.33 and 330.592 and 234.198 and 185.482 and 229.324 and 316.639	250.67 and 8.984 and 4.299 and 4.23 and 22.2267 and 8.362	6.789 and 4.391 and 2.799 and 3.328 and 5.534 and 8.248	2.3186 and 6.477 and 1.9747 and 2.489 and 1.415 and 7.402	TRPV1 response, Mean± SEM (N) (human TRPV1): 51± 56; Change in Ca5 fluorescence, individual experiments (CRC raw data) (human TRPA1; log concentration -6.52288 (M)): 2.468 and 7.816 and 1.613 and 1.7019 and 8.366 and 8.252; Change in Ca5 fluorescence, individual experiments (CRC raw data) (human TRPA1; log concentration -7 (M)): 1.245 and 5.751 and 2.391 and 4.163 and 4.153 and 8.202
CCCCC/C=C\C/C=C\C/C=C\CCCCC(=O)NCCO [γ-LEA, γ-linolenoyl ethanolamide]	significantly greater	277 ± 67	354 ± 39	350.183 and 323.986 and 542.155 and 300.489 and 279.486 and 328.331	408.892 and 291.398 and 513.101 and 87.8703 and 117.804 and 243.201	21.7947 and 80.3389 and 37.6766 and 7.854 and 2.348 and 95.5783	179.174 and 9.167 and 5.6781 and 5.979 and 3.41 and 2.934	5.188 and 2.355 and 8.6025 and 1.698 and 1.3988 and 2.387	0.9319 and 4.487 and 3.741 and 0.8649 and 0.1851 and 3.24	11 ± 2	significantly greater	87 ± 32	activated TRPA1	did not differ	311 ± 60	311 ± 11	346.049 and 274.809 and 332.645 and 317.863 and 295.869 and 300.839	11.624 and 8.016 and 83.7476 and 222.133 and 100.409 and 97.3092	5.237 and 1.372 and 11.2552 and 5.494 and 2.231 and 27.0912	2.963 and 1.112 and 12.1911 and 2.48 and 2.092 and 1.749	Maximal TRPV1 response compared with the highest concentration of capsaicin (human TRPV1): did not differ; TRPV1 response, Mean± SEM (N) (human TRPV1): 354± 56; Change in Ca5 fluorescence, individual experiments (CRC raw data) (human TRPA1; log concentration -6.52288 (M)): 0.5786 and 1.167 and 6.112 and 4.171 and 1.807 and 1.825; Change in Ca5 fluorescence, individual experiments (CRC raw data) (human TRPA1; log concentration -7 (M)): 0.7736 and 1.971 and 6.385 and 5.071 and 2.235 and 0.6536
